Converted amounts (≈) assume the structure as drawn. Where two headings read alike, the source gives them in different places.
Experiments:
Format in all cases: cell-based
[1] = system: S. pyogenes MMX 946 Macrolide-Resistant; assay: MIC against S. pyogenes MMX 946 Macrolide-Resistant; conditions: Streptococcus pyogenes
[2] = system: E. coli MMX TolC parent strain; assay: MIC against E. coli MMX TolC parent strain; conditions: Escherichia coli
[3] = system: S. aureus Micromyx USA 300; assay: MIC against S. aureus Micromyx USA 300; conditions: Staphylococcus aureus, USA300; S. aureus Micromyx USA 300; read-out: MIC
[4] = system: P. aeruginosa MMX Mex parent strain; assay: MIC against P. aeruginosa MMX Mex parent strain; conditions: Pseudomonas aeruginosa
[5] = system: P. aeruginosa ATCC 27853; assay: MIC against P. aeruginosa ATCC 27853; conditions: Pseudomonas aeruginosa, ATCC27853
[6] = system: E. faecalis ATCC 29212; assay: MIC against E. faecalis ATCC 29212; conditions: Enterococcus faecalis
[7] = system: E. faecalis MMX 847 Macrolide-Resistant; assay: MIC against E. faecalis MMX 847 Macrolide-Resistant; conditions: Enterococcus faecalis
[8] = system: S. aureus MMX 3035 cErmA; assay: MIC against S. aureus MMX 3035 cErmA; conditions: Staphylococcus aureus, MMX3035CERMA
[9] = system: E. coli ATCC 15922; assay: MIC against E. coli ATCC 15922; conditions: Escherichia coli, ATCC15922
[10] = system: P. aeruginosa MMX 3476 Δmex; assay: MIC against P. aeruginosa MMX 3476 Δmex; conditions: Pseudomonas aeruginosa
[11] = system: S. pneumoniae MMX 3031 cMefA; assay: MIC against S. pneumoniae MMX 3031 cMefA; conditions: Streptococcus pneumoniae, MMX3031CMEFA
[12] = system: S. aureus BAA 977 iErmA; assay: MIC against S. aureus BAA 977 iErmA; conditions: Staphylococcus aureus, BAA977
[13] = system: S. aureus ATCC 29213; assay: MIC against S. aureus ATCC 29213; conditions: Staphylococcus aureus, ATCC29213, S. aureus ATCC 29213; read-out: MIC
[14] = system: S. pneumoniae ATCC 49619; assay: MIC against S. pneumoniae ATCC 49619; conditions: Streptococcus pneumoniae, ATCC49619; S. pneumoniae ATCC 49619; read-out: MIC
[15] = system: C. difficile BAA 1805; assay: MIC against C. difficile BAA 1805; conditions: Clostridioides difficile, BAA1805
[16] = system: S. pyogenes ATCC 19615; assay: MIC against S. pyogenes ATCC 19615; conditions: Streptococcus pyogenes, ATCC19615
[17] = system: K. pneumoniae ATCC 10031; assay: MIC against K. pneumoniae ATCC 10031; conditions: Klebsiella pneumoniae, ATCC10031; K. pneumoniae ATCC 10031; read-out: MIC
[18] = system: H. influenzae ATCC 49247; assay: MIC against H. influenzae ATCC 49247; conditions: Haemophilus influenzae, ATCC49247; H. influenzae ATCC 49247; read-out: MIC
[19] = system: E. coli MP-9 ΔTolC; assay: MIC against E. coli MP-9 ΔTolC; conditions: Escherichia coli
[20] = system: S. pneumoniae MMX 3028 cErmB; assay: MIC against S. pneumoniae MMX 3028 cErmB; conditions: Streptococcus pneumoniae, MMX3028CERMB
[21] = system: E. coli MP-74 LptD mutant; assay: MIC against E. coli MP-74 LptD mutant; conditions: Escherichia coli
[22] = system: E. coli ATCC 25922; assay: MIC against E. coli ATCC 25922; conditions: Escherichia coli, ATCC25922
[23] = system: B. fragilis ATCC 25285; assay: MIC against B. fragilis ATCC 25285; conditions: Bacteroides fragilis, ATCC25285; B. fragilis ATCC 25285; read-out: MIC
[24] = system: E. coli MMX 0121 ΔTolC; assay: MIC against E. coli MMX 0121 ΔTolC; conditions: Escherichia coli
[25] = system: S. aureus MP-549 msr(a) USA 300; assay: MIC against S. aureus MP-549 msr(a) USA 300; conditions: Staphylococcus aureus, USA300, S. aureus MP-549 msr(a) USA 300
[26] = C. difficile BAA 1805, read-out: MIC
[27] = S. pyogenes ATCC 19615, read-out: MIC
[28] = S. pneumoniae MMX 3028 cErmB, read-out: MIC
[29] = S. aureus MMX 3035 cErmA, read-out: MIC
[30] = P. aeruginosa MMX Mex parent strain, read-out: MIC
[31] = P. aeruginosa ATCC 27853, read-out: MIC
[32] = E. coli ATCC 15922, read-out: MIC

| Structure (SMILES) | MIC [1] [µg/mL] | MIC [2] [µg/mL] | MIC [3] [µg/mL] | MIC [4] [µg/mL] | MIC [5] [µg/mL] | MIC ([6]; ATCC29212, read-out: MIC) [µg/mL] | MIC [7] [µg/mL] | MIC [8] [µg/mL] | MIC [9] [µg/mL] | MIC [10] [µg/mL] | MIC [11] [µg/mL] | MIC [12] [µg/mL] | MIC [13] [µg/mL] | MIC [14] [µg/mL] | MIC [15, 26] [µg/mL] | MIC [16, 27] [µg/mL] | MIC [17] [µg/mL] | MIC [18] [µg/mL] | MIC [20, 28] [µg/mL] | MIC [8, 29] [µg/mL] | other results |
| --- | --- | --- | --- | --- | --- | --- | --- | --- | --- | --- | --- | --- | --- | --- | --- | --- | --- | --- | --- | --- | --- |
| CSC1O[C@H]([C@H](NC(=O)[C@H]2NC[C@@H]3CC(c4ccc(F)cc4)=CCO[C@H]32)[C@H](C)Cl)C(O)[C@@H](O)[C@H]1O (stereo partly drawn) [FSA-507057] | > 64 | > 64 | 1 (≈ 1.88 µM) | > 64 | > 64 | 1 (≈ 1.88 µM) | > 64 | > 64 | > 64 | > 64 | ≤ 0.06 | 1 (≈ 1.88 µM) | 2 (≈ 3.77 µM) | ≤ 0.06 |  |  |  |  |  |  |  |
| CSC1O[C@H]([C@H](NC(=O)[C@H]2NC[C@@H]3C=C(c4ccc(C(F)(F)F)cc4)CCO[C@@H]23)[C@H](C)Cl)C(O)[C@@H](O)[C@H]1O (stereo partly drawn) [FSA-507053] |  | > 64 | 0.5 (≈ 0.861 µM) | > 64 | > 64 | 2 (≈ 3.44 µM) | > 64 | > 64 | > 64 | > 64 |  |  |  |  | 8 (≈ 13.8 µM) | ≤ 0.06 |  |  |  |  |  |
| CSC1O[C@H]([C@H](NC(=O)[C@H]2NC[C@@H]3C[C@@H](CCc4cccc(F)c4)CCO[C@H]32)[C@H](C)Cl)C(O)[C@@H](O)[C@H]1O (stereo partly drawn) [FSA-510022] |  |  |  |  |  |  |  |  |  |  | ≤ 0.06 |  |  | ≤ 0.06 |  | ≤ 0.06 | 2 (≈ 3.56 µM) | 1 (≈ 1.78 µM) | 4 (≈ 7.13 µM) | 2 (≈ 3.56 µM) | MIC ([1]; S. pyogenes MMX 946 MacRes, read-out: MIC): 0.5 µg/mL (≈ 0.891 µM); MIC [19]: 4 µg/mL (≈ 7.13 µM); MIC ([7]; E. faecalis MMX 847 MacRes, read-out: MIC): 2 µg/mL (≈ 3.56 µM); MIC [21]: 4 µg/mL (≈ 7.13 µM) |
| CSC1O[C@H]([C@H](NC(=O)[C@H]2NC[C@H]3CC=CCO[C@H]32)[C@H](C)Cl)C(O)[C@@H](O)[C@H]1O (stereo partly drawn) [FSA-507051] | > 32 | > 32 |  | > 32 | > 32 |  | > 32 | > 32 |  | > 32 | 1 (≈ 2.29 µM) |  |  | 1 (≈ 2.29 µM) |  |  |  | 6 (≈ 13.7 µM) |  |  | MIC [15]: > 32 µg/mL; MIC ([6]; ATCC29212): > 32 µg/mL; MIC [16]: 0.5 µg/mL (≈ 1.14 µM); MIC [20]: > 32 µg/mL; MIC [22]: > 32 µg/mL |
| C=CC1=CCO[C@@H]2[C@H](CN[C@@H]2C(=O)N[C@H]([C@H](C)Cl)[C@H]2OC(SC)[C@H](O)[C@H](O)C2O)C1 (stereo partly drawn) [FSA-507041] | > 32 | > 32 |  | > 32 | > 32 | 2 (≈ 4.32 µM) | > 32 | > 32 |  | > 32 | < 0.03 | 0.5 (≈ 1.08 µM) | 0.5 (≈ 1.08 µM) | < 0.03 | 0.5 (≈ 1.08 µM) | 0.06 (≈ 0.13 µM) |  |  |  |  | MIC [22]: > 32 µg/mL; MIC [23]: 2 µg/mL (≈ 4.32 µM) |
| CSC1O[C@H]([C@H](NC(=O)[C@H]2NC[C@@H]3C[C@H]4C[C@H]4CO[C@H]32)[C@H](C)Cl)C(O)[C@@H](O)[C@H]1O (stereo in doubt) [FSA-507007] |  |  |  |  |  |  |  |  |  |  |  | 0.5 (≈ 1.11 µM) |  |  | 4 (≈ 8.87 µM) | ≤ 0.06 | > 64 | 2 (≈ 4.43 µM) |  | > 64 | MIC ([2]; E. coli MMX TolC parent strain, read-out: MIC): > 64 µg/mL; MIC [24]: 8 µg/mL (≈ 17.7 µM); MIC [4, 30]: > 64 µg/mL; MIC [5, 31]: > 64 µg/mL; MIC ([7]; E. faecalis MMX 847 Macrolide-Resistant (MacRes), read-out: MIC): > 64 µg/mL; MIC ([22]; E. coli ATCC 25922, read-out: MIC): > 64 µg/mL |
| CSC1O[C@H]([C@H](NC(=O)[C@H]2NC[C@@H]3C[C@@H](c4ccc(F)cc4F)CCO[C@H]32)[C@H](C)Cl)C(O)[C@@H](O)[C@H]1O (stereo partly drawn) [FSA-511078] |  |  |  |  |  |  |  |  |  |  | ≤ 0.06 |  |  | ≤ 0.06 |  | ≤ 0.06 | 8 (≈ 14.5 µM) |  | 4 (≈ 7.26 µM) | > 64 | MIC [19]: 2 µg/mL (≈ 3.63 µM); MIC [21]: 8 µg/mL (≈ 14.5 µM); MIC [9, 32]: > 64 µg/mL |
| CSC1O[C@H]([C@H](NC(=O)[C@H]2NC[C@@H]3C[C@@H](c4ccc(C(F)(F)F)cc4)CCO[C@H]32)[C@H](C)Cl)C(O)[C@@H](O)[C@H]1O (stereo partly drawn) [FSA-509019] |  |  | 0.5 (≈ 0.858 µM) |  |  |  |  |  |  |  |  |  |  |  |  |  |  | 4 (≈ 6.86 µM) |  |  | MIC [4, 30]: > 64 µg/mL; MIC [5, 31]: > 64 µg/mL; MIC [9, 32]: > 64 µg/mL |
| CSC1O[C@H]([C@H](NC(=O)[C@H]2NC[C@@H]3CC(c4ccc(C(F)(F)F)cc4)=CCO[C@H]32)[C@H](C)Cl)C(O)[C@@H](O)[C@H]1O (stereo partly drawn) [FSA-507060] |  |  | 0.12 (≈ 0.207 µM) | > 64 | > 64 | 8 (≈ 13.8 µM) |  |  |  | > 64 |  | 1 (≈ 1.72 µM) | 2 (≈ 3.44 µM) | 0.5 (≈ 0.861 µM) |  |  |  |  |  |  |  |
| CSC1O[C@H]([C@H](NC(=O)[C@@H]2[C@@H]3OCC=CC[C@H]3CN2C)[C@H](C)Sc2ccc(-c3cncnc3)cc2)C(O)[C@@H](O)[C@H]1O (stereo partly drawn) [FSA-212034] |  | > 64 |  | > 64 | > 64 |  | > 64 |  | > 64 | > 64 | ≤ 0.06 |  |  | ≤ 0.06 |  | ≤ 0.06 |  | 4 (≈ 6.64 µM) | 4 (≈ 6.64 µM) |  | MIC ([1]; S. pyogenes MMX 946 Macrolide-Resistant (MacRes), read-out: MIC): 2 µg/mL (≈ 3.32 µM); MIC [25]: 0.5 µg/mL (≈ 0.829 µM); MIC [24]: 1 µg/mL (≈ 1.66 µM); MIC [15]: 0.5 µg/mL (≈ 0.829 µM); MIC [23]: 1 µg/mL (≈ 1.66 µM) |

Reference: patent US20220073554A1, “LINCOSAMIDE ANTIBIOTICS AND USES THEREOF” (President and Fellows of Harvard College, priority 2017, published 2022)
